Legend:
[1] = decongestant; typically administered every 2 to 4 hours; cited from earlier work
[2] = Typical duration of action (period of therapeutic effect) of an immediate release dose, from labeling; type: in vivo
Text: As used herein, “ATDAIRD” shall mean the average therapeutic duration of action of an effective immediate release dose” of a particular active ingredient. […] The therapeutic duration of action of a particular active ingredient can readily be determined from the dosing instructions in the labeling for immediate release products containing that particular active ingredient.

Compound | duration of therapeutic effect [1] | ATDAIRD (average therapeutic duration of action of an effective immediate release dose) [2]
CNC[C@H](O)c1cccc(O)c1 [phenylephrine, benzynemethanol, 3-hydroxy-α-[(methylamino)methyl]] | about 2.5 hours | –
CC(C)Cc1ccc(C(C)C(=O)O)cc1 (centres unmarked) [ibuprofen, 2-(4-isobutylphenyl)-propionic acid] | – | 5 h
COc1ccc2cc([C@H](C)C(=O)O)ccc2c1 [naproxen] | – | 10 h
CC(C(=O)O)c1cccc(C(=O)c2ccccc2)c1 (centres unmarked) [ketoprofen] | – | 5 h
CN[C@@H](C)[C@@H](O)c1ccccc1 [psuedoephedrine] | – | about 3 hours

Source: US8771716B2, “Modified release analgesic suspensions” (McNeil-PPC, Inc., priority 2006, dated 2014)
